Measured values published in patent US20250387385A1, “TREATMENT FOR GLOMERULAR DISEASES” (ZYDUS Lifesciences Limited, priority 2022, published 2025).

Key:
hemoglobin = details: clinical trials; reference 11; cited from earlier work
5/6 nephrectomized rat = experiment: 5/6 nephrectomy induced renal dysfunction in male SD rats; format: in vivo; details: 5/6 nephrectomized SD rats, 15 mg/kg for four weeks
Protocol: Male SD rats will be operated for 5/6 nephrectomy to induce the focal segmental glomerulosclerosis. After a week of recovery, animals were treated with compound of formula (Ia). The randomized rats were treated with compound of formula (Ia) (15 mg/kg) for four weeks. At the end of treatment serum creatinine, serum urea and urine microalbumin was measured.

db/db mice = experiment: Diabetes induced renal dysfunction in db/db mice; format: in vivo; details: one kidney removed, 15 mg/kg for eight weeks; for Urine microalbumin (reduction): reduction against diabetic mice
Protocol: For inducing diabetes-induced renal dysfunction, one kidney was removed from male db/db mice and they were treated with compound of formula (Ia) and combination for 8 weeks. At the end of treatment, renal dysfunction was estimated. Histological change in renal disease was also accessed with biochemical changes in serum and urine. Male db/db mice were randomized and were treated with compound of formula (Ia) (15 mg/kg) for eight weeks. At the end of treatment serum creatinine, serum urea and urine microalbumin was measured.

ischemia condition = details: reference 12, cited from earlier work
LPS treated mice = experiment: LPS-induced nephritis in C57 mice; format: in vivo; details: serum 24 h after LPS, oral, formula (Ia) 15 mg/kg, Iptacopan 20 mg/kg twice a day; for Serum creatinine (reduction): reduction against LPS treated mice; for Serum urea (reduction): reduction compared with LPS treated mice
Protocol: Single dose of lipopolysachharide (LPS)-induced acute nephritis was generated in C57 mice and the effect of compound of formula (Ia) and combination as shown below. Male C57 mice were treated with vehicle/compound of formula (Ia) (15 mg/kg) and combination of compound of formula (Ia) (15 mg/kg) and Iptacopan (20 mg/kg, twice a day) by oral route. These mice were bled after 24 h of LPS treatment and serum was obtained. The creatinine and urea levels were measured in the serum.

HIF = details: animal model of anemia; reference 10; cited from earlier work
doxorubicin treated mice = experiment: Doxorubicin-induced glomerulosclerosis in male Balb/c mice; format: in vivo; details: reduction against doxorubicin treated animals, 24 h urine, oral, two weeks, formula (Ia) 15 mg/kg, Fimasartan 15 mg/kg
Protocol: Male Balb/c mice were treated with doxorubicin (10 mg/kg, IV). After 5 weeks of treatment, mice were randomized based on protein excretion urine into four groups: Doxorubicin, compound of formula (Ia) (15 mg/kg) and combination of compound of formula (Ia) (15 mg/kg) and Fimasartan (15 mg/kg) by oral route. The treatment continued for two weeks. These mice kept in metabolic cage and 24 h urine protein excretion was measured.

BSA treated mice = experiment: Cationic bovine serum albumin (cBSA) induced nephritis in male C57 mice; format: in vivo; details: reduction against BSA treated mice, 24 h urine on 11th day, oral, 10 days, formula (Ia) 15 mg/kg, Iptacopan 20 mg/kg BID
Protocol: Male C57 mice were treated with bovine serum albumin (BSA) at 2, 4, 6, 8 and 10 mg/kg on day 1, 2, 3, 4, and 5 days by intraperitoneal route, respectively. The BSA at 10 mg/kg was treated for next 5 days. On the same day, mice were treated with either vehicle/compound of formula (Ia) (15 mg/kg) and combination of compound of formula (Ia) (15 mg/kg) and Iptacopan (20 mg/kg, BID) by oral route and continued for 10 days. On 11th day mice kept in metabolic cage and 24 h urine protein excretion was measured.

[1] = listed as Compound of formula (Ia)
[2] = listed as compound of formula (Ia)

## O=C(O)CNC(=O)c1c(O)c2ccccc2n(OCC2CC2)c1=O [Formula (Ia), Desidustat]
hemoglobin
  hemoglobin: improves hemoglobin
5/6 nephrectomized rat
  Microalbumin (reduction of urinary excretion): 35.9 ± 12.0%
  Serum creatinine (reduction): 14.9 ± 3.2%
  Serum urea (reduction): 15.9 ± 8.8%
5/6 nephrectomized rat; [1]
  Microalbumin (reduction of urinary excretion): 35.9±12.0%
  Serum creatinine (reduction): 14.9±3.2%
  Serum urea (reduction): 15.9±8.8%
db/db mice
  Serum creatinine (reduction): 28.4 ± 4.4%
  Serum urea (reduction): 25.8 ± 4.8%
  Urine microalbumin (reduction): 50.2 ± 3.2%
db/db mice; [1]
  Serum creatinine (reduction): 28.4±4.4%
  Serum urea (reduction): 25.8±4.8%
  Urine microalbumin (reduction): 50.2±3.2%
Ischemia condition; ischemia condition
  IL-1β levels: reduced
  IL-6 levels: reduced
Ischemia condition; oxidative stress
  MDA: decreases
  SOD: decreases
LPS treated mice
  Serum creatinine (reduction): 34.1 ± 5.2%
  Serum urea (reduction): 44.9 ± 5.2%
LPS treated mice; [2]
  Serum creatinine (reduction): 34.1±5.2%
  Serum urea (reduction): 44.9 ± 5.2%
HIF
  HIF stabilisation: stabilizes HIF
  erythropoiesis: induces erythropoiesis
Doxorubicin treated mice
  Urine total protein (reduction): 47.8 ± 5.8%
Doxorubicin treated mice; [2]
  Urine total protein (reduction): 47.8±5.8%
BSA treated mice
  Urine total protein (reduction): 40.1 ± 7.6%
BSA treated mice; [1]
  Urine total protein (reduction): 40.1±7.6%
